Reference: patent publication US9688676B2, “Tyrosine kinase inhibitors” (PRINCIPIA BIOPHARMA INC., priority 2015, dated 2017)

Target: BTK (Homo sapiens (Human), UniProt Q06187)
Experiment: BTK enzymatic activity assay (Caliper-based kinase assay)
Assay type: biochemical
Conditions: human recombinant BTK 0.5 nM, ATP 16 μM, 3 h room temperature
Description: A Caliper-based kinase assay (Caliper Life Sciences, Hopkinton, Mass.) was used to measure inhibition of BTK kinase activity of a compound of the present disclosure. […] The reaction was then terminated with EDTA, final concentration 20 mM and the phosphorylated reaction product was quantified on a Caliper Desktop Profiler (Caliper LabChip 3000). […] This value is presented as the IC50.

Chain of BTK (Q06187 whole entry): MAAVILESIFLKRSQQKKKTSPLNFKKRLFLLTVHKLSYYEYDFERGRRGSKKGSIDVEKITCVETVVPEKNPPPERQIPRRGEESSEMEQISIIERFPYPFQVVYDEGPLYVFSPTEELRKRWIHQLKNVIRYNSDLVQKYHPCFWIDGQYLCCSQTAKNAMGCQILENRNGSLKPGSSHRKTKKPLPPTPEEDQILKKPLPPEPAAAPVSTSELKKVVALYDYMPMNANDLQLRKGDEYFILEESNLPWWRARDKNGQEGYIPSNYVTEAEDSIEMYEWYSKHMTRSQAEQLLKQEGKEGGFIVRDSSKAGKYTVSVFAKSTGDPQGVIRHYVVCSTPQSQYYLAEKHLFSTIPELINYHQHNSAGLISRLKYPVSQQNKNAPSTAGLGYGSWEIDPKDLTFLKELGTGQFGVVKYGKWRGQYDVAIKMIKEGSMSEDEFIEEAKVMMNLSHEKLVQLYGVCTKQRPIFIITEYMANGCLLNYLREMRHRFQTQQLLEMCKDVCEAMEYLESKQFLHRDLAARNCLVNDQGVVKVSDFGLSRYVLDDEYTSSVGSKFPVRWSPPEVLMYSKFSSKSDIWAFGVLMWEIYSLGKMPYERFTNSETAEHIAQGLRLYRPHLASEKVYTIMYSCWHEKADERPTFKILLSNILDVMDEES

Compound	IC50 [nM]
CC(C)(C)OC(=O)N1CCN(C(C)(C)C=C(C#N)C(=O)N2CCC[C@@H](n3c(=O)n(-c4ccc(Oc5ccccc5)cc4)c4c(N)nccc43)C2)CC1 [Compound 43, (R)-tert-butyl 4-(5-(3-(4-amino-2-oxo-3-(4-phenoxyphenyl)-2,3-dihydro-1H-imidazo[4,5-c]pyridin-1-yl)piperidin-1-yl)-4-cyano-2-methyl-5-oxopent-3-en-2-yl)piperazine-1-carboxylate]	22.5
CC(=O)N1CCN(C(C)(C)C=C(C#N)C(=O)N2CCC[C@@H](n3c(=O)n(-c4ccc(Oc5ccccc5)cc4)c4c(N)nccc43)C2)CC1 [Compound 44, (R)-4-(4-acetylpiperazin-1-yl)-2-(3-(4-amino-2-oxo-3-(4-phenoxyphenyl)-2,3-dihydro-1H-imidazo[4,5-c]pyridin-1-yl)piperidine-1-carbonyl)-4-methylpent-2-enenitrile]	3.3
CC(C)(C=C(C#N)C(=O)N1CCC[C@@H](n2c(=O)n(-c3ccc(Oc4ccccc4)cc3)c3c(N)nccc32)C1)N1[C@@H]2CC[C@H]1COC2 [Compound 45, 2-((R)-3-(4-amino-2-oxo-3-(4-phenoxyphenyl)-2,3-dihydro-1H-imidazo[4,5-c]pyridin-1-yl)piperidine-1-carbonyl)-4-((1R,5S)-3-oxa-8-azabicyclo[3.2.1]octan-8-yl)-4-methylpent-2-enenitrile]	25.1
CC(C)(C=C(C#N)C(=O)N1CCC[C@@H](n2c(=O)n(-c3ccc(Oc4ccccc4)cc3)c3c(N)nccc32)C1)N1CCNCC1 [Compound 47, (R)-2-(3-(4-amino-2-oxo-3-(4-phenoxyphenyl)-2,3-dihydro-1H-imidazo[4,5-c]pyridin-1-yl)piperidine-1-carbonyl)-4-methyl-4-(piperazin-1-yl)pent-2-enenitrile]	3.1
CN1CCN(C(=O)C(C)(C)C=C(C#N)C(=O)N2CCC[C@@H](n3c(=O)n(-c4ccc(Oc5ccccc5)cc4)c4c(N)nccc43)C2)CC1 [Compound 49, (R)-2-(3-(4-amino-2-oxo-3-(4-phenoxyphenyl)-2,3-dihydro-1H-imidazo[4,5-c]pyridin-1-yl)piperidine-1-carbonyl)-4,4-dimethyl-5-(4-methylpiperazin-1-yl)-5-oxopent-2-enenitrile]	12.8
CN(C)C(=O)C(C)(C)C=C(C#N)C(=O)N1CCC[C@@H](n2c(=O)n(-c3ccc(Oc4ccccc4)cc3)c3c(N)nccc32)C1 [Compound 50, (R)-5-(3-(4-amino-2-oxo-3-(4-phenoxyphenyl)-2,3-dihydro-1H-imidazo[4,5-c]pyridin-1-yl)piperidin-1-yl)-4-cyano-N,N,2,2-tetramethyl-5-oxopent-3-enamide]	8.3
N#CC(=CC1CC1(F)F)C(=O)N1CCC[C@@H](n2c(=O)n(-c3ccc(Oc4ccccc4)cc3)c3c(N)nccc32)C1 (stereo partly drawn) [Compound 52, (R)-2-(3-(4-amino-2-oxo-3-(4-phenoxyphenyl)-2,3-dihydro-1H-imidazo[4,5-c]pyridin-1-yl)piperidine-1-carbonyl)-3-(2,2-difluorocyclopropyl)acrylonitrile]	12
N#CC(=CC1[C@H]2COC[C@@H]12)C(=O)N1CCC[C@@H](n2c(=O)n(-c3ccc(Oc4ccccc4)cc3)c3c(N)nccc32)C1 (stereo partly drawn) [Compound 53, 2-((R)-3-(4-amino-2-oxo-3-(4-phenoxyphenyl)-2,3-dihydro-1H-imidazo[4,5-c]pyridin-1-yl)piperidine-1-carbonyl)-3-((1R,5S)-3-oxabicyclo[3.1.0]hexan-6-yl)acrylonitrile]	4.2
CC(C)(C=C(C#N)C(=O)N1CCC[C@@H](n2c(=O)n(-c3ccc(Oc4ccccc4)cc3)c3c(N)nccc32)C1)N1CCC(F)(F)C1 [Compound 58, (R)-2-(3-(4-amino-2-oxo-3-(4-phenoxyphenyl)-2,3-dihydro-1H-imidazo[4,5-c]pyridin-1-yl)piperidine-1-carbonyl)-4-(3,3-difluoropyrrolidin-1-yl)-4-methylpent-2-enenitrile]	4.2
CO[C@@H]1CCN(C(C)(C)C=C(C#N)C(=O)N2CCC[C@@H](n3c(=O)n(-c4ccc(Oc5ccccc5)cc4)c4c(N)nccc43)C2)C1 [Compound 60, 2-((R)-3-(4-amino-2-oxo-3-(4-phenoxyphenyl)-2,3-dihydro-1H-imidazo[4,5-c]pyridin-1-yl)piperidine-1-carbonyl)-4-((R)-3-methoxypyrrolidin-1-yl)-4-methylpent-2-enenitrile]	2.4
COC[C@H]1CCCN1C(C)(C)C=C(C#N)C(=O)N1CCC[C@@H](n2c(=O)n(-c3ccc(Oc4ccccc4)cc3)c3c(N)nccc32)C1 [Compound 62, 2-((R)-3-(4-amino-2-oxo-3-(4-phenoxyphenyl)-2,3-dihydro-1H-imidazo[4,5-c]pyridin-1-yl)piperidine-1-carbonyl)-4-((R)-2-(methoxymethyl)pyrrolidin-1-yl)-4-methylpent-2-enenitrile]	5.9
COC[C@@H]1CCCN1C(C)(C)C=C(C#N)C(=O)N1CCC[C@@H](n2c(=O)n(-c3ccc(Oc4ccccc4)cc3)c3c(N)nccc32)C1 [Compound 63, 2-((R)-3-(4-amino-2-oxo-3-(4-phenoxyphenyl)-2,3-dihydro-1H-imidazo[4,5-c]pyridin-1-yl)piperidine-1-carbonyl)-4-((S)-2-(methoxymethyl)pyrrolidin-1-yl)-4-methylpent-2-enenitrile]	1.4
C=C(F)C(=O)N1CCC[C@@H](n2c(=O)n(-c3ccc(Oc4ccccc4)cc3)c3c(N)nccc32)C1 [Compound 67, (R)-4-amino-1-(1-(2-fluoroacryloyl)piperidin-3-yl)-3-(4-phenoxyphenyl)-1H-imidazo[4,5-c]pyridin-2(3H)-one]	1.2
(R)-2-(3-(4-amino-2-oxo-3-(4-phenoxyphenyl)-2,3-dihydro-1H-imidazo[4,5-c]pyridin-1-yl)piperidine-1-carbonyl)-3-(4-methyl-1-(oxetan-3-yl)piperidin-4-yl)acrylonitrile [Compound 42]	4.1

Other lines, results leading:

IC50 [nM]	Compound
13.1	N#CC(=CC1(c2ccccc2)CC1)C(=O)N1CCC[C@@H](n2c(=O)n(-c3ccc(Oc4ccccc4)cc3)c3c(N)nccc32)C1 [Compound 46, (R)-2-(3-(4-amino-2-oxo-3-(4-phenoxyphenyl)-2,3-dihydro-1H-imidazo[4,5-c]pyridin-1-yl)piperidine-1-carbonyl)-3-(1-phenylcyclopropyl)acrylonitrile]
17.8	CN1CCN(c2cccc(C(C)(C)C=C(C#N)C(=O)N3CCC[C@@H](n4c(=O)n(-c5ccc(Oc6ccccc6)cc5)c5c(N)nccc54)C3)n2)CC1 [Compound 54, (R)-2-(3-(4-amino-2-oxo-3-(4-phenoxyphenyl)-2,3-dihydro-1H-imidazo[4,5-c]pyridin-1-yl)piperidine-1-carbonyl)-4-methyl-4-(6-(4-methylpiperazin-1-yl)pyridin-2-yl)pent-2-enenitrile]
3.1	CC(C)(C=C(C#N)C(=O)N1CCC[C@@H](n2c(=O)n(-c3ccc(Oc4ccccc4)cc3)c3c(N)nccc32)C1)c1ccccn1 [Compound 55, (R)-2-(3-(4-amino-2-oxo-3-(4-phenoxyphenyl)-2,3-dihydro-1H-imidazo[4,5-c]pyridin-1-yl)piperidine-1-carbonyl)-4-methyl-4-(pyridin-2-yl)pent-2-enenitrile]
7.8	CN1CCN(c2ccnc(C(C)(C)C=C(C#N)C(=O)N3CCC[C@@H](n4c(=O)n(-c5ccc(Oc6ccccc6)cc5)c5c(N)nccc54)C3)n2)CC1 [Compound 56, (R)-2-(3-(4-amino-2-oxo-3-(4-phenoxyphenyl)-2,3-dihydro-1H-imidazo[4,5-c]pyridin-1-yl)piperidine-1-carbonyl)-4-methyl-4-(4-(4-methylpiperazin-1-yl)pyrimidin-2-yl)pent-2-enenitrile]
61.4	CC(C)(N)C=C(C#N)C(=O)N1CCC[C@@H](n2c(=O)n(-c3ccc(Oc4ccccc4)cc3)c3c(N)nccc32)C1 [Compound 57, (R)-4-amino-2-(3-(4-amino-2-oxo-3-(4-phenoxyphenyl)-2,3-dihydro-1H-imidazo[4,5-c]pyridin-1-yl)piperidine-1-carbonyl)-4-methylpent-2-enenitrile]
2.6	CO[C@H]1CCN(C(C)(C)C=C(C#N)C(=O)N2CCC[C@@H](n3c(=O)n(-c4ccc(Oc5ccccc5)cc4)c4c(N)nccc43)C2)C1 [Compound 59, 2-((R)-3-(4-amino-2-oxo-3-(4-phenoxyphenyl)-2,3-dihydro-1H-imidazo[4,5-c]pyridin-1-yl)piperidine-1-carbonyl)-4-((S)-3-methoxypyrrolidin-1-yl)-4-methylpent-2-enenitrile]
2.5	CC(C)(C=C(C#N)C(=O)N1CCC[C@@H](n2c(=O)n(-c3ccc(Oc4ccccc4)cc3)c3c(N)nccc32)C1)N1CCN2C(=O)CC[C@@H]2C1 [Compound 61, 2-((R)-3-(4-amino-2-oxo-3-(4-phenoxyphenyl)-2,3-dihydro-1H-imidazo[4,5-c]pyridin-1-yl)piperidine-1-carbonyl)-4-methyl-4-((R)-6-oxohexahydropyrrolo[1,2-a]pyrazin-2(1H)-yl)pent-2-enenitrile]
2.4	CCC1(C=C(C#N)C(=O)N2CCC[C@@H](n3c(=O)n(-c4ccc(Oc5ccccc5)cc4)c4c(N)nccc43)C2)CCOCC1 [Compound 65, (R)-2-(3-(4-amino-2-oxo-3-(4-phenoxyphenyl)-2,3-dihydro-1H-imidazo[4,5-c]pyridin-1-yl)piperidine-1-carbonyl)-3-(4-ethyltetrahydro-2H-pyran-4-yl)acrylonitrile]
2	COCC1(C=C(C#N)C(=O)N2CCC[C@@H](n3c(=O)n(-c4ccc(Oc5ccccc5)cc4)c4c(N)nccc43)C2)CCOCC1 [Compound 66, (R)-2-(3-(4-amino-2-oxo-3-(4-phenoxyphenyl)-2,3-dihydro-1H-imidazo[4,5-c]pyridin-1-yl)piperidine-1-carbonyl)-3-(4-(methoxymethyl)tetrahydro-2H-pyran-4-yl)acrylonitrile]
